Assay results taken from PubChem BioAssay AID1918999 (Molecular Pharmacology Branch, DTP, NCI, 2023).

Test system: 556581-035-R-J1-PDC complex spheroid growth
Assay: Anticancer human tumor 556581-035-R-J1-PDC patient-derived ovarian carcinoma cell line growth inhibition [AhR]
Details: for IC50: curve of first compound; for viability, T/C: stronger effect = lower value; active = viability on the fitted dose curve at most 10% of control; inactive = the rest
In short: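 Spheroids combined tumor cells with HUVEC endothelial cells and human MSCs as stroma. AhR antagonists were paired with standard or investigational drugs, each dosed in half-log steps down from near clinical Cmax, or from 10 microM where Cmax was unknown.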

[1] = second compound 0.1 µM, first compound 0.0316 µM
[2] = second compound 0.1 µM, first compound 0.1 µM
[3] = second compound 0.1 µM, first compound 0.316 µM
[4] = second compound 0.1 µM, first compound 1 µM
[5] = second compound 0.316 µM, first compound 0.0316 µM
[6] = second compound 0.316 µM, first compound 0.1 µM
[7] = second compound 0.316 µM, first compound 0.316 µM
[8] = second compound 0.316 µM, first compound 1 µM
[9] = second compound 1 µM, first compound 0.0316 µM
[10] = second compound 1 µM, first compound 0.1 µM
[11] = second compound 1 µM, first compound 0.316 µM
[12] = second compound 1 µM, first compound 1 µM
[13] = second compound 3.16 µM, first compound 0.0316 µM
[14] = second compound 3.16 µM, first compound 0.1 µM
[15] = second compound 3.16 µM, first compound 0.316 µM
[16] = second compound 3.16 µM, first compound 1 µM
[17] = second compound 10 µM, first compound 0.0316 µM
[18] = second compound 10 µM, first compound 0.1 µM
[19] = second compound 10 µM, first compound 0.316 µM
[20] = second compound 10 µM, first compound 1 µM
[21] = second compound 0.1 µM, first compound 3.16 µM
[22] = second compound 0.1 µM, first compound 10 µM
[23] = second compound 0.316 µM, first compound 3.16 µM
[24] = second compound 0.316 µM, first compound 10 µM
[25] = second compound 1 µM, first compound 3.16 µM
[26] = second compound 1 µM, first compound 10 µM
[27] = second compound 3.16 µM, first compound 3.16 µM
[28] = second compound 3.16 µM, first compound 10 µM
[29] = second compound 10 µM, first compound 3.16 µM
[30] = second compound 10 µM, first compound 10 µM
[31] = second compound 0.1 µM, first compound 0.00949 µM
[32] = second compound 0.1 µM, first compound 0.03 µM
[33] = second compound 0.1 µM, first compound 0.0949 µM
[34] = second compound 0.1 µM, first compound 0.3 µM
[35] = second compound 0.316 µM, first compound 0.00949 µM
[36] = second compound 0.316 µM, first compound 0.03 µM
[37] = second compound 0.316 µM, first compound 0.0949 µM
[38] = second compound 0.316 µM, first compound 0.3 µM
[39] = second compound 1 µM, first compound 0.00949 µM
[40] = second compound 1 µM, first compound 0.03 µM
[41] = second compound 1 µM, first compound 0.0949 µM
[42] = second compound 1 µM, first compound 0.3 µM
[43] = second compound 3.16 µM, first compound 0.00949 µM
[44] = second compound 3.16 µM, first compound 0.03 µM
[45] = second compound 3.16 µM, first compound 0.0949 µM
[46] = second compound 3.16 µM, first compound 0.3 µM
[47] = second compound 10 µM, first compound 0.00949 µM
[48] = second compound 10 µM, first compound 0.03 µM
[49] = second compound 10 µM, first compound 0.0949 µM
[50] = second compound 10 µM, first compound 0.3 µM
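For viability, T/C in this document: compound exposure lasted 7 days; 100% = DMSO vehicle control growth.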

CC1COCCN1c1cc(-c2ccnn2C)c2ccnc(-c3ccn[nH]3)c2n1 (stereo not given) + CC(CO)NC(=O)c1cc(-c2ccc(Cl)cc2)nn(-c2cnn(C)c2)c1=O
inactive: viability, T/C (second compound 0.1 µM, first compound 0.00316 µM) 106% | viability, T/C (second compound 0.1 µM, first compound 0.01 µM) 109% | viability, T/C [1] 108% | viability, T/C [2] 79.7% | viability, T/C [3] 52.4% | viability, T/C [4] 47.1% | viability, T/C (second compound 0.316 µM, first compound 0.00316 µM) 107% | viability, T/C (second compound 0.316 µM, first compound 0.01 µM) 114% | viability, T/C [5] 104% | viability, T/C [6] 89.3% | viability, T/C [7] 56.3% | viability, T/C [8] 47% | viability, T/C (second compound 1 µM, first compound 0.00316 µM) 118% | viability, T/C (second compound 1 µM, first compound 0.01 µM) 120% | viability, T/C [9] 106% | viability, T/C [10] 84.4% | viability, T/C [11] 64.6% | viability, T/C [12] 48.5% | viability, T/C (second compound 3.16 µM, first compound 0.00316 µM) 114% | viability, T/C (second compound 3.16 µM, first compound 0.01 µM) 130% | viability, T/C [13] 114% | viability, T/C [14] 80.7% | viability, T/C [15] 53.6% | viability, T/C [16] 43.2% | viability, T/C (second compound 10 µM, first compound 0.00316 µM) 107% | viability, T/C (second compound 10 µM, first compound 0.01 µM) 119% | viability, T/C [17] 103% | viability, T/C [18] 68.6% | viability, T/C [19] 50.5% | viability, T/C [20] 44.8%
0.474 µM: IC50 (second compound 0.1 µM)
0.398 µM: IC50 (second compound 3.16 µM)
0.69 µM: IC50 (second compound 0.316 µM)
0.944 µM: IC50 (second compound 1 µM)
0.295 µM: IC50 (second compound 10 µM)

CC1COCCN1c1cc(C2(S(C)(=N)=O)CC2)nc(-c2ccnc3[nH]ccc23)n1 (stereo not given) + CC(CO)NC(=O)c1cc(-c2ccc(Cl)cc2)nn(-c2cnn(C)c2)c1=O
inactive: viability, T/C [1] 116% | viability, T/C [2] 113% | viability, T/C [3] 101% | viability, T/C [4] 92% | viability, T/C [21] 86.2% | viability, T/C [22] 69.1% | viability, T/C [5] 97.1% | viability, T/C [6] 113% | viability, T/C [7] 105% | viability, T/C [8] 90.1% | viability, T/C [23] 81.4% | viability, T/C [24] 70.2% | viability, T/C [9] 111% | viability, T/C [10] 105% | viability, T/C [11] 116% | viability, T/C [12] 98.2% | viability, T/C [25] 78.2% | viability, T/C [26] 67.6% | viability, T/C [13] 105% | viability, T/C [14] 104% | viability, T/C [15] 107% | viability, T/C [16] 89.4% | viability, T/C [27] 83.5% | viability, T/C [28] 71.8% | viability, T/C [17] 118% | viability, T/C [18] 119% | viability, T/C [19] 110% | viability, T/C [20] 101% | viability, T/C [29] 81.2% | viability, T/C [30] 72.5%
> 10 µM: IC50 (second compound 0.1 µM) | IC50 (second compound 0.316 µM) | IC50 (second compound 1 µM) | IC50 (second compound 3.16 µM) | IC50 (second compound 10 µM)

COc1ccc([C@@H](O)c2cc(-c3ncnc4cc(N5CCOCC5)ccc34)c(F)cc2Cl)nn1 + CC(CO)NC(=O)c1cc(-c2ccc(Cl)cc2)nn(-c2cnn(C)c2)c1=O
6.65 µM: IC50 (second compound 0.316 µM)
> 10 µM: IC50 (second compound 3.16 µM) | IC50 (second compound 10 µM)
5.38 µM: IC50 (second compound 0.1 µM)
inactive: viability, T/C [1] 98% | viability, T/C [2] 105% | viability, T/C [3] 92.9% | viability, T/C [4] 69.7% | viability, T/C [21] 61% | viability, T/C [22] 41% | viability, T/C [5] 110% | viability, T/C [6] 108% | viability, T/C [7] 99.9% | viability, T/C [8] 69.5% | viability, T/C [23] 58.7% | viability, T/C [24] 45% | viability, T/C [9] 104% | viability, T/C [10] 117% | viability, T/C [11] 108% | viability, T/C [12] 91.1% | viability, T/C [25] 61.9% | viability, T/C [26] 46.4% | viability, T/C [13] 113% | viability, T/C [14] 112% | viability, T/C [15] 105% | viability, T/C [16] 85.3% | viability, T/C [27] 64.3% | viability, T/C [28] 51.7% | viability, T/C [17] 113% | viability, T/C [18] 110% | viability, T/C [19] 109% | viability, T/C [20] 82% | viability, T/C [29] 62.4% | viability, T/C [30] 53.2%
7.72 µM: IC50 (second compound 1 µM)

Nc1ncn(C2CC(O)C(CO)S2)c(=O)n1 (stereo not given) + CC(CO)NC(=O)c1cc(-c2ccc(Cl)cc2)nn(-c2cnn(C)c2)c1=O
inactive: viability, T/C (second compound 0.1 µM, first compound 0.000949 µM) 122% | viability, T/C (second compound 0.1 µM, first compound 0.003 µM) 117% | viability, T/C [31] 106% | viability, T/C [32] 115% | viability, T/C [33] 109% | viability, T/C [34] 73.3% | viability, T/C (second compound 0.316 µM, first compound 0.000949 µM) 112% | viability, T/C (second compound 0.316 µM, first compound 0.003 µM) 106% | viability, T/C [35] 116% | viability, T/C [36] 111% | viability, T/C [37] 100% | viability, T/C [38] 69.9% | viability, T/C (second compound 1 µM, first compound 0.000949 µM) 114% | viability, T/C (second compound 1 µM, first compound 0.003 µM) 131% | viability, T/C [39] 126% | viability, T/C [40] 121% | viability, T/C [41] 108% | viability, T/C [42] 80.2% | viability, T/C (second compound 3.16 µM, first compound 0.000949 µM) 123% | viability, T/C (second compound 3.16 µM, first compound 0.003 µM) 128% | viability, T/C [43] 125% | viability, T/C [44] 109% | viability, T/C [45] 97.1% | viability, T/C [46] 80.8% | viability, T/C (second compound 10 µM, first compound 0.000949 µM) 122% | viability, T/C (second compound 10 µM, first compound 0.003 µM) 111% | viability, T/C [47] 111% | viability, T/C [48] 125% | viability, T/C [49] 106% | viability, T/C [50] 84%
> 0.3 µM: IC50 (second compound 0.1 µM) | IC50 (second compound 0.316 µM) | IC50 (second compound 1 µM) | IC50 (second compound 3.16 µM) | IC50 (second compound 10 µM)

O=C(C=Cn1cnc(-c2cc(C(F)(F)F)cc(C(F)(F)F)c2)n1)NNc1cnccn1 + CC(CO)NC(=O)c1cc(-c2ccc(Cl)cc2)nn(-c2cnn(C)c2)c1=O
inactive: viability, T/C [31] 84% | viability, T/C [32] 84.2% | viability, T/C [33] 87.6% | viability, T/C [34] 69.3% | viability, T/C (second compound 0.1 µM, first compound 0.949 µM) 66.9% | viability, T/C (second compound 0.1 µM, first compound 3 µM) 62.5% | viability, T/C [35] 87.3% | viability, T/C [36] 93% | viability, T/C [37] 81% | viability, T/C [38] 76% | viability, T/C (second compound 0.316 µM, first compound 0.949 µM) 71.2% | viability, T/C (second compound 0.316 µM, first compound 3 µM) 66% | viability, T/C [39] 88.7% | viability, T/C [40] 103% | viability, T/C [41] 84% | viability, T/C [42] 73.8% | viability, T/C (second compound 1 µM, first compound 0.949 µM) 68.2% | viability, T/C (second compound 1 µM, first compound 3 µM) 65.8% | viability, T/C [43] 98.2% | viability, T/C [44] 81.4% | viability, T/C [45] 80.5% | viability, T/C [46] 70% | viability, T/C (second compound 3.16 µM, first compound 0.949 µM) 62.7% | viability, T/C (second compound 3.16 µM, first compound 3 µM) 63% | viability, T/C [47] 93.1% | viability, T/C [48] 80% | viability, T/C [49] 75.9% | viability, T/C [50] 77.9% | viability, T/C (second compound 10 µM, first compound 0.949 µM) 72.7% | viability, T/C (second compound 10 µM, first compound 3 µM) 72.7%
> 3 µM: IC50 (second compound 0.1 µM) | IC50 (second compound 0.316 µM) | IC50 (second compound 1 µM) | IC50 (second compound 3.16 µM) | IC50 (second compound 10 µM)
